From patent publication US10787441B2, “Hepatitis C virus inhibitors” (priority 2016, dated 2020)

Columns and labels:
Format in all cases: cell-based, Hepatitis C virus
[1] = system: HCV genotype 1a H77 strain subgenomic luciferase replicon; experiment: HCV replicon assay, genotype 1a; conditions: Hepatitis C virus, read-out: 1a IC50 (nM), HCV genotype 1a
Protocol: (§1) The HCV luciferase replicon assay measures the ability of a test compound to inhibit HCV replication in cell culture after 3 days of treatment in a human hepatoma cell line (Huh-7) bearing an HCV replicon containing a luciferase-neomycin phosphotransferase fusion gene. The inhibition of HCV replication was measured by quantification of luciferase protein expression. Briefly, Huh-7 cells containing either the HCV genotype 1a H77 strain or genotype 1b Con1 strain subgenomic luciferase replicon (H1a-luc or Zluc, respectively) were grown in DMEM containing glucose, L-glutamine and sodium pyruvate, 10% fetal bovine serum (FBS), 100 IU/mL penicillin, 100 μg/mL streptomycin, 2 mM GlutaMAX, non-essential amino acids and 0.25 (H1a-luc) or 0.5 (Zluc) mg/mL G418. GlutaMAX was obtained from Invitrogen, Corp.; all other media reagents were obtained from Mediatech, Inc. For dose-response testing, the cells were seeded in 96-well plates at 1×10^4 (H1a-luc) or 7.5×10^3 (Zluc) cells/well in a volume of 50 μL, and incubated at 37° C./5% CO2. Three hours after plating, 50 μL of ten 5-fold serial dilutions of compound were added, and cell cultures were incubated at 37° C./5% CO2 for 72 hours. In all cases, Huh-7 cells lacking the HCV replicon served as negative control. To assess luciferase expression, the media/compound was removed from the plates and ONE-glo Luciferase assay reagent (Promega) was added to each well. The assay plates were shaken for 3 minutes at room temperature and luciferase activity for each well was measured with a 1 sec read time on the Victor^3V multilabel counter using a 700 nm cut-off filter (Perkin Elmer). EC50 values were calculated from dose response curves from the resulting best-fit equations determined by Microsoft Excel and XLfit 4.1 software.

[2] = system: HCV 1aY93H mutant replicon; experiment: HCV replicon assay, genotype 1a Y93H mutant; conditions: Hepatitis C virus, read-out: 1aY93H IC50 (nM), HCV genotype 1a, Y93H mutant
Protocol: General procedure: The luciferase replicon transient transfection assay measures the ability of a test compound to inhibit the replication of a transiently-transfected HCV luciferase-bearing wild-type or mutant replicon in cured human hepatoma cells (Huh7.5). The inhibition of HCV replication was measured by quantification of luciferase protein expression. This assay has been validated using a panel of genotype 1a and 1b replicons bearing mutations known to be associated with resistance to BMS-790052. Briefly, subconfluent Huh7.5 cells were electroporated with 10 μg of wild-type or mutant luciferase-bearing HCV replicon RNA. The cells were then seeded in 96-well opaque white plates at 3×10^4 cells/well in 150 μL/well and incubated for 4 hrs at 37° C./5% CO2. Ten 1:5 serial dilutions of each test compound were made in media (DMEM containing glucose, L-glutamine and sodium pyruvate, 10% fetal bovine serum, 100 IU/mL penicillin, 100 μg/mL streptomycin, 2 mM GlutaMAX, and 1×MEM non-essential amino acids (Mediatech, Inc. and Invitrogen Corp.)) at concentrations that were 4× higher than the final concentrations to be tested and 50 μL/well was added to the transfected cells. Untreated, mock-transfected cells served as a negative control of luciferase expression. The plates were incubated at 37° C./5% CO2 for 4 days whereupon the media was removed and 50 μL of ONE-glo luciferase substrate (Promega) was added to each well. The plates were agitated on a rotating platform at room temperature for 3 min and read in a Victor^3V microplate reader (Perkin-Elmer) using a 700 nm cut-off filter with a 1 sec read time. EC50 values were calculated from dose response curves from the resulting best-fit equations determined by Microsoft Excel and XLfit 4.1 software.

[3] = system: HCV genotype 1b Con1 strain subgenomic luciferase replicon; experiment: HCV replicon assay, genotype 1b; conditions: Hepatitis C virus
Protocol: as §1

HCV 2b = experiment: HCV replicon assay, genotype 2b; conditions: Hepatitis C virus, read-out: 2b IC50 (nM), HCV genotype 2b
[4] = system: HCV genotype 3a NS5A within the 1b-replicon; experiment: HCV replicon assay, genotype 3a (NS5A intergenotypic stable cell line); conditions: Hepatitis C virus, read-out: 3a IC50 (nM), HCV genotype 3a
From the text: The nucleotide sequences of the NS5A region of genotype 2a (GenBank Accession # AB047639), genotype 3a (GenBank Accession # D17763), and genotype 4a (GenBank Accession # DQ418788) were synthesized by an outside vendor. The NS5A region of each of these genotypes included the first 11 amino acids of the protease recognition sequence of genotype 1b, as well as the last 10 amino acids of genotype 1b. The NS5A gene cassettes were excised with site specific restriction endonucleases and ligated into a ZS11-luciferase genotype 1b backbone (backbone contains the genotype 1b NS3 protease, NS4a, NS4b, and NS5b coding regions) with similarly cut restriction enzyme sites. Thus, the newly constructed plasmid contains a genotype 2a-, 3a- or 4a-specific NS5A gene within the 1b-replicon.
These new intergenotypic plasmids were used to establish stable cell lines. RNA was generated from the NS5A intergenotypic plasmids and used in conjunction with a lipofectin reagent to transfect a cured Huh7 cell line. Transfected cells were selected for with G418. After selection has occurred the stable cell lines were propagated, tested for luciferase activity, and RT-PCR with genotype specific primers (either 1a, 2a, 3a, or 4a). Stable cell lines containing the intergenotypic replicon were then fully sequenced and analyzed for proper expression of NS3, NS5A and NS5B proteins.
Drug titration analysis was performed using the luciferase replicon assay described herein.
as §1

Row | SMILES | IC50 [1] | IC50 [2] | IC50 [3] | IC50 (HCV 2b) | IC50 [4]
1 | CCC1(CC)c2ccc(-c3cnc([C@@H]4CCCN4C(=O)[C@H](NC(=O)OC)C4CCOCC4)[nH]3)cc2Oc2cc3ccc(-c4cnc([C@@H]5CCCN5C(=O)[C@@H](NC(=O)OC)C5CCOCC5)[nH]4)cc3cc21 [Compound 17, methyl [(1R)-2-[(2S)-2-{5-[12,12-diethyl-9-(2-{(2S)-1-[(2S)-2-[(methoxycarbonyl)amino]-2-(tetrahydro-2H-pyran-4-yl)acetyl]pyrrolidin-2-yl}-1H-imidazol-5-yl)-12H-benzo[b]xanthen-3-yl]-1H-imidazol-2-yl}pyrrolidin-1-yl]-2-oxo-1-(tetrahydro-2H-pyran-4-yl)ethyl]carbamate] | 0.0034 nM | 0.046 nM | 0.0305 nM | 0.028 nM | 0.055 nM
2 | COC(=O)N[C@H](C(=O)N1CCC[C@H]1c1ncc(-c2ccc3c(ccc4oc5ccc(-c6cnc([C@@H]7CCCN7C(=O)[C@@H](NC(=O)OC)C(C)C)[nH]6)cc5c(=O)c43)c2)[nH]1)C(C)C [Compound 25, methyl [(1S)-1-({(2S)-2-[5-(10-{2-[(2S)-1-{(2S)-2-[(methoxycarbonyl)amino]-3-methylbutanoyl}pyrrolidin-2-yl]-1H-imidazol-5-yl}-12-oxo-12H-benzo[a]xanthen-3-yl)-1H-imidazol-2-yl]pyrrolidin-1-yl}carbonyl)-2-methylpropyl]carbamate] | 0.167 nM | ≥ 100 nM | 0.107 nM | ≥ 100 nM | ≥ 1 nM
3 | COC(=O)N[C@H](C(=O)N1CCC[C@H]1c1ncc(-c2ccc3c(F)c4oc5ccc(-c6cnc([C@@H]7CCCN7C(=O)[C@@H](NC(=O)OC)C(C)C)[nH]6)cc5c(=O)c4cc3c2)[nH]1)C(C)C [Compound 26, methyl [(1S)-1-({(2S)-2-[5-(6-fluoro-9-{2-[(2S)-1-{(2S)-2-[(methoxycarbonyl)amino]-3-methylbutanoyl}pyrrolidin-2-yl]-1H-imidazol-5-yl}-12-oxo-12H-benzo[b]xanthen-2-yl)-1H-imidazol-2-yl]pyrrolidin-1-yl}carbonyl)-2-methylpropyl]carbamate] | ≥ 1 nM | ≥ 100 nM | 1 nM | ≥ 100 nM | ≥ 1 nM
4 | COC(=O)N[C@H](C(=O)N1C[C@H](F)C[C@H]1c1ncc(-c2ccc3c(ccc4oc5ccc(-c6cnc([C@@H]7C[C@@H](F)CN7C(=O)[C@@H](NC(=O)OC)C(C)C)[nH]6)cc5c(=O)c43)c2)[nH]1)C(C)C [Compound 27, methyl [(1S)-1-({(2S,4R)-4-fluoro-2-[5-(10-{2-[(2S,4R)-4-fluoro-1-{(2S)-2-[(methoxycarbonyl)amino]-3-methylbutanoyl}pyrrolidin-2-yl]-1H-imidazol-5-yl}-12-oxo-12H-benzo[a]xanthen-3-yl)-1H-imidazol-2-yl]pyrrolidin-1-yl}carbonyl)-2-methylpropyl]carbamate] | ≥ 1 nM | 96.6 nM | 0.591 nM | ≥ 100 nM | ≥ 1 nM
5 | COC(=O)N[C@H](C(=O)N1C[C@H](F)C[C@H]1c1ncc(-c2ccc3c(ccc4oc5cc(-c6cnc([C@@H]7C[C@@H](F)CN7C(=O)[C@@H](NC(=O)OC)C(C)C)[nH]6)ccc5c(=O)c43)c2)[nH]1)C(C)C [Compound 28, methyl [(1S)-1-({(2S,4R)-4-fluoro-2-[5-(9-{2-[(2S,4R)-4-fluoro-1-{(2S)-2-[(methoxycarbonyl)amino]-3-methylbutanoyl}pyrrolidin-2-yl]-1H-imidazol-5-yl}-12-oxo-12H-benzo[a]xanthen-3-yl)-1H-imidazol-2-yl]pyrrolidin-1-yl}carbonyl)-2-methylpropyl]carbamate] | 0.0292 nM | 1.18 nM | 0.00445 nM | 89.8 nM | ≥ 1 nM
6 | COC(=O)N[C@H](C(=O)N1C[C@H](F)C[C@H]1c1ncc(-c2ccc3c(F)c4oc5ccc(-c6cnc([C@@H]7C[C@@H](F)CN7C(=O)[C@@H](NC(=O)OC)C(C)C)[nH]6)cc5c(=O)c4cc3c2)[nH]1)C(C)C [Compound 29, methyl [(1S)-1-({(2S,4R)-4-fluoro-2-[5-(6-fluoro-9-{2-[(2S,4R)-4-fluoro-1-{(2S)-2-[(methoxycarbonyl)amino]-3-methylbutanoyl}pyrrolidin-2-yl]-1H-imidazol-5-yl}-12-oxo-12H-benzo[b]xanthen-2-yl)-1H-imidazol-2-yl]pyrrolidin-1-yl}carbonyl)-2-methylpropyl]carbamate] | ≥ 1 nM | ≥ 100 nM | 1 nM | ≥ 100 nM | ≥ 1 nM
7 | COC(=O)N[C@H](C(=O)N1CCC[C@H]1c1ncc(-c2ccc3c(ccc4oc5cc(-c6cnc([C@@H]7CCCN7C(=O)[C@@H](NC(=O)OC)C(C)C)[nH]6)ccc5c(=O)c43)c2)[nH]1)C(C)C [Compound 33, methyl [(1S)-1-({(2S)-2-[5-(9-{2-[(2S)-1-{(2S)-2-[(methoxycarbonyl)amino]-3-methylbutanoyl}pyrrolidin-2-yl]-1H-imidazol-5-yl}-12-oxo-12H-benzo[a]xanthen-3-yl)-1H-imidazol-2-yl]pyrrolidin-1-yl}carbonyl)-2-methylpropyl]carbamate] | 0.003 nM | 18.4 nM | 0.00333 nM | 14.1 nM | ≥ 1 nM
